Results on 29 molecules are retold here after US7977362B2, “Alpha-(N-benzenesulfonamido)cycloalkyl derivatives” (Bristol-Myers Squibb Company, priority 2009, dated 2011).

The structures appear in SMILES notation.

The first assay deals with Aβ formation (γ-secretase) in H4 cells stably transfected to overexpress the HPLAP-APP fusion protein. In words: In vitro assay based on the inhibition of Aβ formation in cultured cells. The assay is classed as cell-based, human. Conditions: H4 cells overexpressing HPLAP-APP, 18 hrs incubation at 37° C., Aβ in supernatant by time-resolved fluorescence; class symbols. On the procedure:
Cultured human cell lines, such as HEK293 and H4 cells, which express APP and γ-secretase activity or transfected derivative cell lines that overexpress wild-type APP, mutant APP, or APP fusion proteins will secrete Aβ peptides into the culture media that can be quantified as previously outlined (Dovey, H. et al., J. Neurochem., 76:173-181 (2001)). The incubation of these cultured cells with γ-secretase inhibitors decreases the production of Aβ peptides. For instance, H4 cells stably transfected to overexpress the HPLAP-APP fusion protein described above were grown as above, detached, and adjusted to 2×10^5 cells/ml. 100 μl of the resulting suspension was then added to each well of a 96-well plate. After 4 hrs, the media was removed and replaced with 100 μl serum-free media containing various dilutions of the test compound. Plates were then incubated for 18 hrs at 37° C. and a 100 μl aliquot of the tissue culture supernatant was removed for determination of Aβ levels using time-resolved fluorescence of the homogenous sample as outlined above. Alternately, the other methods described above for Aβ determination could be used. The extent of Aβ inhibition was used to calculate the IC50 value for the test compound.
In the table, an inhibitory concentration (IC50) of less than or equal to 50 nM is represented by +++; between 50 nM and 500 nM by ++; between 500 nM and 5000 nM by +.
For the molecule `O=S(=O)(c1ccc(Cl)cc1)N(Cc1ccc(-c2ncon2)cc1)[C@@H]1CCCC[C@H]1CO` (single isomer, unassigned) [Compound 7, N-(4-(1,2,4-oxadiazol-3-yl)benzyl)-4-chloro-N-(trans-2-(hydroxymethyl)cyclohexyl)benzenesulfonamide], the IC50 (commonly the concentration that inhibits the measured activity by half) was ≤ 50 nM. On to `O=S(=O)(c1ccc(Cl)cc1)N(Cc1ccc(-c2ncco2)c(F)c1F)[C@@H]1CCCC[C@H]1CO` [Compound 16, 4-Chloro-N-(2,3-difluoro-4-(oxazol-2-yl)benzyl)-N-((1R,2R)-2-(hydroxymethyl)cyclohexyl)benzenesulfonamide], for which the IC50 was ≤ 50 nM. Consider `O=S(=O)(c1ccc(Cl)cc1)N(Cc1ccc(-c2ncon2)cc1)[C@@H]1CCCC[C@H]1CO` [Compound 17, N-(4-(1,2,4-Oxadiazol-3-yl)benzyl)-4-chloro-N-((1R,2R)-2-(hydroxymethyl)cyclohexyl)benzenesulfonamide], for which the IC50 was ≤ 50 nM.

The same assay, now with this note: H4 cells overexpressing HPLAP-APP, 18 hrs incubation at 37° C., Aβ in supernatant by time-resolved fluorescence; numeric values.
For `O=S(=O)(c1ccc(Cl)cc1)N(Cc1cc(F)c(-c2ncon2)cc1F)[C@@H]1CCCC[C@H]1CO` (relative stereo) [Compound 11, 4-Chloro-N-(2,5-difluoro-4-(1,2,4-oxadiazol-3-yl)benzyl)-N-(trans-2-(hydroxymethyl)cyclohexyl)benzenesulfonamide], the IC50 was 0.32 nM. Still for that read-out and setting: as for `O=S(=O)(c1ccc(Cl)cc1)N(Cc1cc(F)c(-c2ncon2)cc1F)[C@@H]1CCCC[C@H]1CO` [Compound 21, 4-Chloro-N-(2,5-difluoro-4-(1,2,4-oxadiazol-3-yl)benzyl)-N-((1R,2R)-2-(hydroxymethyl)cyclohexyl)benzenesulfonamide], the figure is 0.15 nM.

The same assay, now with this note: Homo sapiens, 18 h, H4 cells overexpressing HPLAP-APP, 18 hrs incubation at 37° C., Aβ in supernatant by time-resolved fluorescence; class symbols.
Molecule `O=S(=O)(c1ccc(Cl)cc1)N(Cc1ccc(-c2ncco2)cc1)[C@@H]1CCC[C@H]1CO` (relative stereo) [Compound 1, 4-Chloro-N-(trans-2-(hydroxymethyl)cyclopentyl)-N-(4-(oxazol-2-yl)benzyl)benzenesulfonamide] gave an IC50 of 50 to 500 nM. Same read-out and setting: the same measure for `O=S(=O)(c1ccc(Cl)cc1)N(Cc1ccc(-c2ncon2)cc1)[C@@H]1CCC[C@H]1CO` (relative stereo) [Compound 2, N-(4-(1,2,4-Oxadiazol-3-yl)benzyl)-4-chloro-N-(trans-2-(hydroxymethyl)cyclopentyl)benzenesulfonamide]: 50 to 500 nM; for `O=S(=O)(c1ccc(Cl)cc1)N(Cc1ccc(-c2ncon2)cc1)[C@@H]1CCC[C@@H]1CO` (relative stereo) [Compound 4, N-(4-(1,2,4-Oxadiazol-3-yl)benzyl)-4-chloro-N-(cis-2-(hydroxymethyl)cyclopentyl)benzenesulfonamide]: 50 to 500 nM; for `O=S(=O)(c1ccc(Cl)cc1)N(Cc1ccc(-c2ncon2)cc1)[C@@H]1CCCC[C@H]1CO` (relative stereo) [Compound 5, N-(4-(1,2,4-Oxadiazol-3-yl)benzyl)-4-chloro-N-(trans-2-(hydroxymethyl)cyclohexyl)benzenesulfonamide]: ≤ 50 nM. Take `O=S(=O)(c1ccc(Cl)cc1)N(Cc1ccc(-c2ncon2)cc1F)[C@@H]1CCCC[C@H]1CO` (relative stereo) [Compound 8, 4-Chloro-N-(2-fluoro-4-(1,2,4-oxadiazol-3-yl)benzyl)-N-(trans-2-(hydroxymethyl)cyclohexyl)benzenesulfonamide]: the IC50 was ≤ 50 nM. On the same count and under the same terms, as for `O=S(=O)(c1ccc(Cl)cc1)N(Cc1ccc(-c2ncco2)c(F)c1F)[C@@H]1CCCC[C@H]1CO` (relative stereo) [Compound 9, 4-Chloro-N-(2,3-difluoro-4-(oxazol-2-yl)benzyl)-N-(trans-2-(hydroxymethyl)cyclohexyl)benzenesulfonamide], the figure is ≤ 50 nM; as for `N#Cc1cc(F)c(CN([C@@H]2CCCC[C@H]2CO)S(=O)(=O)c2ccc(Cl)cc2)cc1F` (relative stereo) [Compound 10, 4-Chloro-N-(4-cyano-2,5-difluorobenzyl)-N-(trans-2-(hydroxymethyl)cyclohexyl)benzenesulfonamide], ≤ 50 nM. In the case of `O=S(=O)(c1ccc(Cl)s1)N(Cc1ccc(-c2ncon2)cc1)[C@@H]1CCCC[C@H]1CO` (relative stereo) [Compound 12, N-(4-(1,2,4-Oxadiazol-3-yl)benzyl)-5-chloro-N-(trans-2-(hydroxymethyl)cyclohexyl)thiophene-2-sulfonamide], the IC50 is ≤ 50 nM. Consider `O=S(=O)(c1ccc(Cl)s1)N(Cc1ccc(-c2ncco2)c(F)c1F)[C@@H]1CCCC[C@H]1CO` (relative stereo) [Compound 13, 5-Chloro-N-(2,3-difluoro-4-(oxazol-2-yl)benzyl)-N-(trans-2-(hydroxymethyl)cyclohexyl)thiophene-2-sulfonamide], for which the IC50 is ≤ 50 nM. Still for that read-out and setting: the same measure for `O=S(=O)(c1ccc(C(F)(F)F)nc1)N(Cc1ccc(-c2ncco2)c(F)c1F)[C@@H]1CCCC[C@H]1CO` (relative stereo) [Compound 27, N-(2,3-Difluoro-4-(oxazol-2-yl)benzyl)-N-(trans-2-(hydroxymethyl)cyclohexyl)-6-(trifluoromethyl)pyridine-3-sulfonamide]: ≤ 50 nM; for `N#Cc1ccc(CN([C@@H]2CCCCC[C@H]2CO)S(=O)(=O)c2ccc(Cl)cc2)cc1` (relative stereo) [Compound 28, 4-Chloro-N-(4-cyanobenzyl)-N-(trans-2-(hydroxymethyl)cycloheptyl)benzenesulfonamide]: ≤ 50 nM. Same read-out and setting: as for `O=S(=O)(c1ccc(Cl)cc1)N(Cc1ccc(-c2ncon2)cc1)[C@@H]1CCCCC[C@H]1CO` (relative stereo) [Compound 29, N-(4-(1,2,4-Oxadiazol-3-yl)benzyl)-4-chloro-N-(trans-2-(hydroxymethyl)cycloheptyl)benzenesulfonamide], the figure is ≤ 50 nM. Same read-out and setting: the same measure for `O=S(=O)(c1ccc(Cl)cc1)N(Cc1ccc(-c2ncco2)cc1)[C@@H]1CCCCC[C@H]1CO` (relative stereo) [Compound 30, 4-Chloro-N-(trans-2-(hydroxymethyl)cycloheptyl)-N-(4-(oxazol-2-yl)benzyl)benzenesulfonamide]: ≤ 50 nM; for `O=S(=O)(c1ccc(Cl)cc1)N(Cc1ccc(-c2ncco2)cc1)[C@@H]1CCCCC[C@@H]1CO` (relative stereo) [Compound 31, 4-Chloro-N-(cis-2-(hydroxymethyl)cycloheptyl)-N-(4-(oxazol-2-yl)benzyl)benzenesulfonamide]: 50 to 500 nM; for `O=S(=O)(c1ccc(Cl)cc1)N(Cc1ccc(-c2ncon2)cc1)[C@@H]1CCCCC[C@@H]1CO` (relative stereo) [Compound 32, N-(4-(1,2,4-Oxadiazol-3-yl)benzyl)-4-chloro-N-(cis-2-(hydroxymethyl)cycloheptyl)benzenesulfonamide]: ≤ 50 nM. On to `O=S(=O)(c1ccc(Cl)cc1)N(Cc1ccc(-c2ncon2)cc1)[C@@H]1CCCC[C@H]1CO` (single isomer, unassigned) [Compound 6, N-(4-(1,2,4-oxadiazol-3-yl)benzyl)-4-chloro-N-(trans-2-(hydroxymethyl)cyclohexyl)benzenesulfonamide], for which the IC50 is ≤ 50 nM. The molecule `O=S(=O)(N[C@H]1CCCC[C@@H]1CO)c1ccc(Cl)cc1` (single isomer, unassigned) [Compound 14] gave an IC50 of 500 to 5000 nM.

`O=S(=O)(N[C@@H]1CCCC[C@H]1CO)c1ccc(Cl)cc1` (single isomer, unassigned) [Compound 15]: the IC50 fell in the range of 500 to 5000 nM. On the same count and under the same terms, the same measure for `CC(O)[C@@H]1CCCC[C@H]1N(Cc1ccc(-c2ncco2)cc1F)S(=O)(=O)c1ccc(Cl)cc1` (single isomer, unassigned) [Compound 25]: ≤ 50 nM. As to `O=S(=O)(c1ccc(Cl)cc1)N(Cc1ccc(-c2ncco2)cc1)[C@@H]1CCCC[C@H]1CO` [Compound 18, 4-Chloro-N-((1R,2R)-2-(hydroxymethyl)cyclohexyl)-N-(4-(oxazol-2-yl)benzyl)benzenesulfonamide], the IC50 was ≤ 50 nM. The same measure, in the same setting: the same measure for `O=S(=O)(c1ccc(Cl)cc1)N(Cc1ccc(-c2ncco2)cc1F)[C@@H]1CCCC[C@H]1CO` [Compound 19, 4-Chloro-N-(2-fluoro-4-(oxazol-2-yl)benzyl)-N-((1R,2R)-2-(hydroxymethyl)cyclohexyl)benzenesulfonamide]: ≤ 50 nM.

Take `O=S(=O)(c1ccc(Cl)cc1)N(Cc1cc(F)c(-c2ncco2)cc1F)[C@@H]1CCCC[C@H]1CO` [Compound 20, 4-Chloro-N-(2,5-difluoro-4-(oxazol-2-yl)benzyl)-N-((1R,2R)-2-(hydroxymethyl)cyclohexyl)benzenesulfonamide]: the IC50 was ≤ 50 nM.

The same assay, now with this note: Homo sapiens, 18 h, H4 cells overexpressing HPLAP-APP, 18 hrs incubation at 37° C., Aβ in supernatant by time-resolved fluorescence; numeric values.
As for `O=S(=O)(c1ccc(Cl)cc1)N(Cc1ccc(-c2ncco2)cc1)[C@@H]1CCC[C@@H]1CO` (relative stereo) [Compound 3, 4-Chloro-N-(cis-2-(hydroxymethyl)cyclopentyl)-N-(4-(oxazol-2-yl)benzyl)benzenesulfonamide], the IC50 is 223 nM. For the molecule `CC(O)[C@@H]1CCCC[C@H]1N(Cc1ccc(-c2ncco2)cc1F)S(=O)(=O)c1ccc(Cl)cc1` (single isomer, unassigned) [Compound 24], 2300 nM corresponded to half-maximal inhibition (IC50).
